These compounds were tested against T1, human PDE4B1 (Homo sapiens, UniProt Q07343) (assay: TR-FRET assay using the LANCE Ultra cAMP kit to determine the activity of hPDE4B1). Conditions: test concentration 1 μM, 1 µM.
T1 construct: host or cells: Sf9 cells
T1 sequence (Q07343 whole entry): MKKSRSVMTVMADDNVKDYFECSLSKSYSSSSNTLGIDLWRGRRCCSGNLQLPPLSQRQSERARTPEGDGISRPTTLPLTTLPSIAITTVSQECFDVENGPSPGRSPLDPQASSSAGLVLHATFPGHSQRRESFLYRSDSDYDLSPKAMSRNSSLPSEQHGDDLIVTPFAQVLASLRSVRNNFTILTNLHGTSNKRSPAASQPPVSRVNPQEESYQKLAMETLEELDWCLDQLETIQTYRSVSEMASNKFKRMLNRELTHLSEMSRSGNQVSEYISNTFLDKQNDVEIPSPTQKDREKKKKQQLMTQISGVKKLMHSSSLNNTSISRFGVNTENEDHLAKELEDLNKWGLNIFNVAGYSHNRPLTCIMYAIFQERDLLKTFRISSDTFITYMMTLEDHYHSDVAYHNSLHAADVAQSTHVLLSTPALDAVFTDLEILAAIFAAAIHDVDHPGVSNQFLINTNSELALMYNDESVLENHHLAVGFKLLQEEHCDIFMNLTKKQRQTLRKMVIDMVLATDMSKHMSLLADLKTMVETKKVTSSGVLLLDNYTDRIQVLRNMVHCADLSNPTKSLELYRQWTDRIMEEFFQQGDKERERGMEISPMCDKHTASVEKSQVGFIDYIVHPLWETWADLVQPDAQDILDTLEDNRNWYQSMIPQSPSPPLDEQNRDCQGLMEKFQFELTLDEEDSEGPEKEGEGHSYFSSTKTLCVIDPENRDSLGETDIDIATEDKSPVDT
Type: biochemical
How it was run: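 Sf9-expressed recombinant human PDE4B1 (0.96 U) hydrolyses 500 nM cAMP for 30 minutes at room temperature in 50 mM Tris-HCl, 50 mM MgCl2, 5 mM DTT, pH 8.5. The reaction is stopped with IBMX, and residual cAMP is measured by TR-FRET (665/620 ratio). IC50 comes from ten concentrations.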
`CC(O)c1ccnc(-c2cnc(-n3cc([S+](C)[O-])c4ccc(C(=O)N5CCOCC5)cc43)nc2)c1` (centres unmarked) [Example 300, (1-(5-(4-(1-Hydroxyethyl)pyridin-2-yl)pyrimidin-2-yl)-3-(methylsulfinyl)-1H-indol-6-yl)(morpholino)methanone] was tested, and the “Inhibition in % (inhibition of PDE4B)” value was 93%.

Same assay, conditions: test concentration 1 μM, read-out: Inhibition in % (inhibition of PDE4B)
`C[S+]([O-])c1cn(-c2ncc(-c3cc(Cl)ccn3)cn2)c2cc(C(=O)N3CCOCC3)ccc12` (centres unmarked) [Example 299, (1-(5-(4-Chloropyridin-2-yl)pyrimidin-2-yl)-3-(methylsulfinyl)-1H-indol-6-yl)(morpholino)methanone] was tested, and the inhibition at 1 µM was 94%. `C[S+]([O-])c1cn(-c2ncc(-c3ccccc3F)cn2)c2cc(C(=O)N3CC=CCC3)ccc12` (centres unmarked) [Example 306, (5,6-Dihydropyridin-1(2H)-yl)(1-(5-(2-fluorophenyl)pyrimidin-2-yl)-3-(methylsulfinyl)-1H-indol-6-yl)methanone] gave an inhibition at 1 µM of 80%. `CN(CCCO)C(=O)c1ccc2c([S+](C)[O-])cn(-c3ncc(-c4ccccc4F)cn3)c2c1` (centres unmarked) [Example 307, 1-(5-(2-Fluorophenyl)pyrimidin-2-yl)-N-(3-hydroxypropyl)-N-methyl-3-(methylsulfinyl)-1H-indole-6-carboxamide] gave an inhibition at 1 µM of 82%. `CN(C)C(=O)c1ccc2c([S+](C)[O-])cn(-c3ncc(-c4ccccn4)cn3)c2c1` (centres unmarked) [Example 313, N,N-Dimethyl-3-(methylsulfinyl)-1-(5-(pyridin-2-yl)pyrimidin-2-yl)-1H-indole-6-carboxamide] was tested, and the inhibition at 1 µM was 92%.

Same assay, conditions: test concentration 10 μM (marked in cell), read-out: Inhibition in % (inhibition of PDE4B)
In the case of `C[S+]([O-])c1cn(-c2ncc(-c3cc(N4CCCC4)ccn3)cn2)c2cc(C(=O)N3CCOCC3)ccc12` (centres unmarked) [Example 301, (3-(Methylsulfinyl)-1-(5-(4-(pyrrolidin-1-yl)pyridin-2-yl)pyrimidin-2-yl)-1H-indol-6-yl)(morpholino)methanone], the inhibition at 10 µM is reported as 99%. `C[S+]([O-])c1cn(-c2ncc(-c3ccccc3F)cn2)c2cc(C(=O)N3CC[C@@H](CO)C3)ccc12` (stereo partly drawn) [Example 302, (1-(5-(2-Fluorophenyl)pyrimidin-2-yl)-3-(methylsulfinyl)-1H-indol-6-yl)((R)-3-(hydroxymethyl)pyrrolidin-1-yl)methanone] showed an inhibition at 10 µM of 103%. For `C[S+]([O-])c1cn(-c2ncc(-c3ccccc3F)cn2)c2cc(C(=O)N3CC[C@H](CO)C3)ccc12` (stereo partly drawn) [Example 303, (1-(5-(2-Fluorophenyl)pyrimidin-2-yl)-3-(methylsulfinyl)-1H-indol-6-yl)((S)-3-(hydroxymethyl)pyrrolidin-1-yl)methanone], the inhibition at 10 µM was 99%. In the case of `CNC(=O)CN(C)C(=O)c1ccc2c([S+](C)[O-])cn(-c3ncc(-c4cc(C)ccc4F)cn3)c2c1` (centres unmarked) [Example 304, 1-(5-(2-Fluoro-5-methylphenyl)pyrimidin-2-yl)-N-methyl-N-(2-(methylamino)-2-oxoethyl)-3-(methylsulfinyl)-1H-indole-6-carboxamide], the inhibition at 10 µM is reported as 115%. In the case of `CNC(=O)CN(C)C(=O)c1ccc2c(S(C)(=O)=O)cn(-c3ncc(-c4cc(C)ccc4F)cn3)c2c1` [Example 305, 1-(5-(2-Fluoro-5-methylphenyl)pyrimidin-2-yl)-N-methyl-N-(2-(methylamino)-2-oxoethyl)-3-(methylsulfonyl)-1H-indole-6-carboxamide], the inhibition at 10 µM is reported as 85%. `C[S+]([O-])c1cn(-c2ncc(-c3ccccc3F)cn2)c2cc(C(=O)N3C[C@@H]4C[C@H]3CO4)ccc12` (stereo partly drawn) [Example 308, (1S,4S)-2-Oxa-5-azabicyclo[2.2.1]heptan-5-yl(1-(5-(2-fluorophenyl)pyrimidin-2-yl)-3-(methylsulfinyl)-1H-indol-6-yl)methanone] showed an inhibition at 10 µM of 101%. `CS(=O)(=O)c1cn(-c2ncc(-c3ccccc3F)cn2)c2cc(C(=O)N3C[C@@H]4C[C@H]3CO4)ccc12` [Example 309, (1S,4S)-2-Oxa-5-azabicyclo[2.2.1]heptan-5-yl(1-(5-(2-fluorophenyl)pyrimidin-2-yl)-3-(methylsulfonyl)-1H-indol-6-yl)methanone] showed an inhibition at 10 µM of 97%. `COc1ccc(F)c(-c2cnc(-n3cc(S(C)(=O)=O)c4ccc(C(=O)N(C)CC(N)=O)cc43)nc2)c1` [Example 310, N-(2-Amino-2-oxoethyl)-1-(5-(2-fluoro-5-methoxyphenyl)pyrimidin-2-yl)-N-methyl-3-(methylsulfonyl)-1H-indole-6-carboxamide] was tested, and the inhibition at 10 µM was 91%. `CCc1ccc(F)c(-c2cnc(-n3cc(S(C)(=O)=O)c4ccc(C(=O)N(C)CC(N)=O)cc43)nc2)c1` [Example 311, N-(2-Amino-2-oxoethyl)-1-(5-(5-ethyl-2-fluorophenyl)pyrimidin-2-yl)-N-methyl-3-(methylsulfonyl)-1H-indole-6-carboxamide] showed an inhibition at 10 µM of 98%. Compound `CS(=O)(=O)c1cn(-c2ncc(-c3cc(Cl)ccn3)cn2)c2cc(C(=O)N3CCOCC3)ccc12` [Example 312, (1-(5-(4-Chloropyridin-2-yl)pyrimidin-2-yl)-3-(methylsulfonyl)-1H-indol-6-yl)(morpholino)methanone] has an inhibition at 10 µM of 93%. For `Cc1cccc(-c2cnc(-n3cc([S+](C)[O-])c4ccc(C(=O)N(C)C)cc43)nc2)n1` (centres unmarked) [Example 314, N,N-Dimethyl-1-(5-(6-methylpyridin-2-yl)pyrimidin-2-yl)-3-(methylsulfinyl)-1H-indole-6-carboxamide], the inhibition at 10 µM was 98%. With `Cc1ccc(F)c(-c2cnc(-n3cc([S+](C)[O-])c4ccc(C(=O)N(C)CCO)cc43)nc2)c1` (centres unmarked) [Example 315, 1-(5-(2-Fluoro-5-methylphenyl)pyrimidin-2-yl)-N-(2-hydroxyethyl)-N-methyl-3-(methylsulfinyl)-1H-indole-6-carboxamide] the inhibition at 10 µM was 97%. `CCOc1ccc(F)c(-c2cnc(-n3cc([S+](C)[O-])c4ccc(C(=O)N(C)CCO)cc43)nc2)c1` (centres unmarked) [Example 316, 1-(5-(5-Ethoxy-2-fluorophenyl)pyrimidin-2-yl)-N-(2-hydroxyethyl)-N-methyl-3-(methylsulfinyl)-1H-indole-6-carboxamide] was tested, and the inhibition at 10 µM was 98%. Compound `Cc1ccnc(-c2cnc(-n3cc([S+](C)[O-])c4ccc(C(=O)N(C)CCO)cc43)nc2)c1` (centres unmarked) [Example 317, N-(2-Hydroxyethyl)-N-methyl-1-(5-(4-methylpyridin-2-yl)pyrimidin-2-yl)-3-(methylsulfinyl)-1H-indole-6-carboxamide] has an inhibition at 10 µM of 87%. Work on `Cc1ccnc(-c2cnc(-n3cc(C(C)O)c4ccc(C(=O)N5CCOCC5)cc43)nc2)c1` (centres unmarked) [Example 318, (3-(1-Hydroxyethyl)-1-(5-(4-methylpyridin-2-yl)pyrimidin-2-yl)-1H-indol-6-yl)(morpholino)methanone] yielded an inhibition at 10 µM of 96%. Work on `CCOc1ccc(F)c(-c2cnc(-n3cc(C(C)O)c4ccc(C(=O)N5CCOCC5)cc43)nc2)c1` (centres unmarked) [Example 319, (1-(5-(5-Ethoxy-2-fluorophenyl)pyrimidin-2-yl)-3-(1-hydroxyethyl)-1H-indol-6-yl)(morpholino)methanone] yielded an inhibition at 10 µM of 99%. `Cc1ccc(F)c(-c2cnc(-n3cc(C(C)O)c4ccc(C(=O)N5CCOCC5)cc43)nc2)c1` (centres unmarked) [Example 320] gave an inhibition at 10 µM of 109%. `Cc1ccc(F)c(-c2cnc(-n3cc(C(C)O)c4ccc(C(=O)N5CC[C@@H](N)C5)cc43)nc2)c1` (stereo partly drawn) [Example 321, ((R)-3-Aminopyrrolidin-1-yl)(1-(5-(2-fluoro-5-methylphenyl)pyrimidin-2-yl)-3-(1-hydroxyethyl)-1H-indol-6-yl)methanone] was tested, and the inhibition at 10 µM was 143%.

From patent US9315490B2, “2,5-substituted pyrimidines” (Grünenthal GmbH, priority 2014, dated 2016)
